Assay results as given in patent publication EP3161491B1, “[…] FOR THE DETECTION OF THE MANIPULATION OF MUSCLE GROWTH IN A DOMESTIC ANIMAL” (Stichting Kwaliteitsgarantie Vleeskalversector, priority 2014, dated 2015).

How the values were obtained:
[1] = Observation of general health of calves during the 19 weeks treatment period; assay type: in vivo, Holstein-Friesian calves; details: three intramuscular treatments, 19 weeks observation
Procedure: Calves were randomly assigned into treatment groups.
All calves were treated with the myostatin propeptide fragment three times with during the observation period. Physical data and samples were collected during the life-time of the calves, such as general health, local reactions, and body weight. Serum samples were collected. Some clinical signs were observed, but they remained within a range that was considered normal for a 19 weeks fattening period. […] The animals were healthy at the time of slaughter and all slaughter samples were collected.

[2] = test system: anti-myostatin antibodies
Procedure: Calves were randomly assigned into treatment groups. Twenty one (21) Holstein-Friesian calves (12 male and 9 female) between 9 - 14 weeks of age were included in the study. […] The control group was only injected with the injection fluids, whereas the second group was treated with the myostatin propeptide fragment. The treatments were administered intramuscularly on day 0, day 35 and day 88 of the treatment. Animals were monitored during 19 weeks from the start of the treatment.
Myostatin propeptide fragment (SEQ ID NO 1) was dissolved in sterile arachis oil, and mixed with ViteSel, Freund's Adjuvant Incomplete, or Freund's Adjuvant Complete for injection. […] The control group was injected with the same injection fluid, but without the added peptide. […]
The coated microplate wells were coated with Imperacer® wash buffer "A" using washer-program "block", block against unspecific interaction with "chimera direct block" solution (240 µl/well, 1 min/RT) and with Imperacer® wash buffer "B". After this treatment, the microplate wells were ready for sample incubation. […]
The wells were subsequently washed with Imperacer® wash buffers "B" and "A". 30 µl/well of ready-to-use Imperacer® PCR-mastermix were added to each well. The wells were sealed using real-time PCR foil, and placed into the Imperacer® reader 50 cycles at 95°C with 12 sec per cycle, at 50°C for 30 sec and at 72°C for 30 sec. […]

[3] = test system: myostatin pathway biomarkers; details: change relative to non-manipulated reference animal
Procedure: Example 2 was repeated using bovine samples analysed in Example 1.
Detection Conjugate "CHI-Bovine-IgG" (conjugated antibody: anti-Bovine IgG-heavy and light chain Antibody, Sheep Polyclonal, catalogue number: A10-115; Supplier: Bethyl Laboratories, Inc., USA) was used instead of the mouse conjugate. All other Imperacer conjugates for the additional myostatin pathway biomarkers were prepared using standard methods as described in EP 2189539 ([0106]-[0122]). For the biomarkers p-AKT, p-FOXO, MyOD1, MyoG, FBO32, ALK type 1, Pax3, Myf-5, MuRF1, CDKN1 and CDK2, tissue homogenate instead of serum was used. Table 7: Biomarker analysis
The additional myostatin pathway biomarkers shown in Table 7 were quantified using immune-PCR.

CKMSPINMLYFNGKEQIIYG [myostatin propeptide fragment]
general health of the calves [1]: did not impact the general health of the calves | Amount of antibodies measured in sample ([2]; anti-myostatin IgG in calf blood serum, intramuscular treatment on day 0, day 35 and day 88): 382 ng/mL | levels of measured anti-myostatin IgG antibodies and treatment ([2]; blind and open tests, compared to the negative control animals): clear association | (P)-SMAD2/ SMAD 3 ([3]; calf sample): - | Act IIB ([3]; calf serum): + | IgG anti-myostatin antibodies ([3]; calf serum): + | Leptin ([3]; calf serum): + | Myostatin Propeptide ([3]; calf serum): - | (p)-FOxO ([3]; calf tissue homogenate): + | ALK type 1 ([3]; calf tissue homogenate): - | CDK2 ([3]; calf tissue homogenate): + | CDKN1 A ([3]; calf tissue homogenate): + | FBXO32 ([3]; calf tissue homogenate): - | MuRF1 ([3]; calf tissue homogenate): - | Myf-5 ([3]; calf tissue homogenate): + | MyoD1 ([3]; calf tissue homogenate): + | MyoG ([3]; calf tissue homogenate): + | Pax 3 ([3]; calf tissue homogenate): + | p-AKT ([3]; calf tissue homogenate): +
